Results: patent publication US20140045890A1, “NOVEL COMPOUNDS” (SYNGENTA PARTICIPATIONS AG, priority 2011, published 2014)

How the values were obtained:
[1] = test system: Pythium ultimum; assay: Pythium ultimum / liquid culture (seedling damping off); type: cell-based; settings: Globisporangium ultimum, liquid culture in PDB, 24° C., 2-3 days after application, read-out: inhibit fungal infestation (inhibition of growth determined photometrically)
[2] = test system: Phytophthora infestans; assay: whole plant or invertebrate; type: in vivo; settings: in Solanum lycopersicum, foliar, read-out: inhibit fungal infestation (percent disease control compared to untreated)
[3] = test system: Plasmopara viticola; assay: Plasmopara viticola / grape / leaf disc preventative; type: in vivo; settings: foliar, grape vine leaf disks, inoculated 1 day after application, assessed 6-8 days after application, read-out: inhibit fungal infestation (percent disease control compared to untreated)
[4] = test system: Blumeria qraminis f. sp. tritici (Erysiphe qraminis f. sp. tritici); assay: Blumeria graminis f. sp. tritici / wheat / leaf disc preventative (powdery mildew on wheat); type: in vivo; settings: foliar, wheat leaf segments cv. Kanzler, inoculated 1 day after application, assessed 6-8 days after application, read-out: inhibit fungal infestation (percent disease control compared to untreated)

SMILES	melting point [°C]	inhibition at 200 ppm [1] [%]	inhibition at 200 ppm [2] [%]	inhibition at 200 ppm [3] [%]	inhibition at 200 ppm [4] [%]
COC(Oc1cc(Cl)c2ncc(Br)cc2c1)C(=O)NC(C)(C)c1ccccn1 (centres unmarked) [Compound 14]	95				
C#Cc1cnc2ccc(OC(SC)C(=O)NC(C)(C)c3ccncc3)cc2c1 (centres unmarked) [Compound 35]		≥ 80			
C#Cc1cnc2c(C)cc(OC(SC)C(=O)NC(C)(C)c3ccncc3)cc2c1 (centres unmarked) [Compound 36]		≥ 80	≥ 80	≥ 80	
C#Cc1cnc2ccc(OC(SC)C(=O)NC3(c4ccccn4)CC3)cc2c1 (centres unmarked) [Compound 37]		≥ 80	≥ 80		≥ 80
C#Cc1cnc2c(C)cc(OC(SC)C(=O)NC3(c4ccccn4)CC3)cc2c1 (centres unmarked) [Compound 38]		≥ 80		≥ 80	
C#Cc1cnc2ccc(OC(SC)C(=O)NC(C)(C)c3cc(C(=O)OC)on3)cc2c1 (centres unmarked) [Compound 40]		≥ 80	≥ 80		
C#Cc1cnc2c(C)cc(OC(SC)C(=O)NC(C)(C)c3cc(C(=O)OC)on3)cc2c1 (centres unmarked) [Compound 41]		≥ 80		≥ 80	
C#Cc1cnc2c(C)cc(OC(SC)C(=O)NC(C)(C)c3cc(CO)on3)cc2c1 (centres unmarked) [Compound 43]		≥ 80	≥ 80	≥ 80	
C#Cc1cnc2ccc(OC(SC)C(=O)NC(C)(C)c3nocc3I)cc2c1 (centres unmarked) [Compound 49]		≥ 80	≥ 80	≥ 80	
C#Cc1cnc2ccc(OC(SC)C(=O)NC(C)(C)c3noc4ccccc34)cc2c1 (centres unmarked) [Compound 50]		≥ 80		≥ 80	
C#Cc1cnc2ccc(OC(SC)C(=O)NC(C)(C)c3cc(COC)on3)cc2c1 (centres unmarked) [Compound 52]		≥ 80	≥ 80	≥ 80	≥ 80
C#Cc1cnc2ccc(OC(SC)C(=O)NC(C)(C)c3noc(C)c3Cl)cc2c1 (centres unmarked) [Compound 54]		≥ 80	≥ 80	≥ 80	≥ 80
C#Cc1cnc2ccc(OC(OC)C(=O)NC(C)(C)c3ccccn3)cc2c1 (centres unmarked) [Compound 55]		≥ 80	≥ 80		≥ 80
C#Cc1cnc2c(C)cc(OC(SC)C(=O)NC(C)(C)c3cccnc3)cc2c1 (centres unmarked) [Compound 56]		≥ 80		≥ 80	
C#Cc1cnc2ccc(OC(SC)C(=O)NC(C)(C)c3cccnc3)cc2c1 (centres unmarked) [Compound 57]		≥ 80			
C#Cc1cnc2ccc(OC(SC)C(=O)NC(C)(C)c3csc([Si](C)(C)C)n3)cc2c1 (centres unmarked) [Compound 58]		≥ 80			
C#Cc1cnc2ccc(OC(SC)C(=O)NC(C)(C)c3nscc3C(=O)OC)cc2c1 (centres unmarked) [Compound 61]		≥ 80		≥ 80	
C#Cc1cnc2ccc(OC(SC)C(=O)NC(C)(C)c3cc(C(=O)OC)sn3)cc2c1 (centres unmarked) [Compound 62, methyl 3-[1-[[2-[(3-ethynyl-6-quinolyl)oxy]-2-methylsulfanyl-acetyl]amino]-1-methyl-ethyl]isothiazole-5-carboxylate]		≥ 80		≥ 80	≥ 80
C#Cc1cnc2ccc(OC(SC)C(=O)NC(C)(C)c3nc(C)c(C)s3)cc2c1 (centres unmarked) [Compound 63]		≥ 80			≥ 80
C#Cc1cnc2ccc(OC(SC)C(=O)NC(C)(C)c3nocc3Br)cc2c1 (centres unmarked) [Compound 64]		≥ 80	≥ 80	≥ 80	≥ 80
CSc1cnc2ccc(OC(SC)C(=O)NC(C)(C)c3nocc3Br)cc2c1 (centres unmarked) [Compound 65]		≥ 80			
CSc1cnc2ccc(OC(SC)C(=O)NC(C)(C)c3cc(C)on3)cc2c1 (centres unmarked) [Compound 66]		≥ 80		≥ 80	
C#Cc1cnc2c(C)cc(OC(SC)C(=O)NC(C)(C)c3cc(C)on3)cc2c1 (centres unmarked) [Compound 67]		≥ 80	≥ 80	≥ 80	≥ 80
C#Cc1cnc2c(F)cc(OC(SC)C(=O)NC(C)(C)c3cc(C)on3)cc2c1 (centres unmarked) [Compound 69]		≥ 80	≥ 80	≥ 80	≥ 80
C#Cc1cnc2cc(F)c(OC(SC)C(=O)NC(C)(C)c3cc(C)on3)cc2c1 (centres unmarked) [Compound 70]			≥ 80		
CSc1cnc2ccc(OC(SC)C(=O)NC(C)(C)c3cc(Cl)on3)cc2c1 (centres unmarked) [Compound 71]		≥ 80		≥ 80	
C#Cc1cnc2c(C)cc(OC(SC)C(=O)NC(C)(C)c3cc(Cl)on3)cc2c1 (centres unmarked) [Compound 72]		≥ 80	≥ 80	≥ 80	

SMILES	melting point [°C]	inhibition at 200 ppm [1] [%]	inhibition at 200 ppm [2] [%]	inhibition at 200 ppm [3] [%]	inhibition at 200 ppm [4] [%]
CSc1cnc2ccc(OC(SC)C(=O)NC(C)(C)c3nocc3C)cc2c1 (centres unmarked) [Compound 74]		≥ 80			
C#Cc1cnc2c(Cl)cc(OC(SC)C(=O)NC(C)(C)c3nocc3C)cc2c1 (centres unmarked) [Compound 76]		≥ 80	≥ 80	≥ 80	
C#Cc1cnc2c(F)cc(OC(SC)C(=O)NC(C)(C)c3nocc3C)cc2c1 (centres unmarked) [Compound 77]		≥ 80	≥ 80	≥ 80	≥ 80
C#Cc1cnc2ccc(OC(SC)C(=O)NCc3ncc(C)s3)cc2c1 (centres unmarked) [Compound 79]		≥ 80			≥ 80
C#Cc1cnc2ccc(OC(SC)C(=O)NC(C)(C)c3cc(CC)on3)cc2c1 (centres unmarked) [Compound 82]		≥ 80	≥ 80	≥ 80	≥ 80
C#Cc1cnc2ccc(OC(SC)C(=O)NC(C)(C)c3cc(C(F)(F)F)on3)cc2c1 (centres unmarked) [Compound 83]		≥ 80	≥ 80	≥ 80	≥ 80
C#Cc1cnc2c(F)cc(OC(SC)C(=O)NC(C)(C)c3cc(COC)on3)cc2c1 (centres unmarked) [Compound 89]		≥ 80	≥ 80	≥ 80	≥ 80
C#Cc1cnc2c(F)cc(OC(SC)C(=O)NC(C)(C)c3cc(C(F)(F)F)on3)cc2c1 (centres unmarked) [Compound 91]			≥ 80	≥ 80	
C#Cc1cnc2c(C)cc(OC(SC)C(=O)NC(C)(C)c3cc(CC)on3)cc2c1 (centres unmarked) [Compound 94]		≥ 80	≥ 80	≥ 80	≥ 80
C#Cc1cnc2c(Cl)cc(OC(SC)C(=O)NC(C)(C)c3cc(COC)on3)cc2c1 (centres unmarked) [Compound 96]		≥ 80	≥ 80	≥ 80	≥ 80
C#Cc1cnc2c(Cl)cc(OC(SC)C(=O)NC(C)(C)c3cc(C(F)(F)F)on3)cc2c1 (centres unmarked) [Compound 99]				≥ 80	
COCc1cc(C(C)(C)NC(=O)C(Oc2ccc3ncc(SC)cc3c2)SC)no1 (centres unmarked) [Compound 100]		≥ 80	≥ 80	≥ 80	
CCc1cc(C(C)(C)NC(=O)C(Oc2ccc3ncc(SC)cc3c2)SC)no1 (centres unmarked) [Compound 103]		≥ 80		≥ 80	
CSc1cnc2ccc(OC(SC)C(=O)NC(C)(C)c3cc(C(F)(F)F)on3)cc2c1 (centres unmarked) [Compound 104]		≥ 80		≥ 80	
COCc1cc(C(C)(C)NC(=O)C(Oc2ccc3ncc(I)cc3c2)SC)no1 (centres unmarked) [Compound 105]		≥ 80	≥ 80	≥ 80	≥ 80
CSC(Oc1ccc2ncc(I)cc2c1)C(=O)NC(C)(C)c1cc(C(F)(F)F)on1 (centres unmarked) [Compound 108]		≥ 80		≥ 80	
CSC(Oc1ccc2ncc(I)cc2c1)C(=O)NC(C)(C)c1cc(C)on1 (centres unmarked) [Compound 109]		≥ 80	≥ 80	≥ 80	≥ 80
CSC(Oc1ccc2ncc(I)cc2c1)C(=O)NC(C)(C)c1nocc1C (centres unmarked) [Compound 110]		≥ 80	≥ 80	≥ 80	≥ 80
CSc1cnc2ccc(OC(SC)C(=O)NC(C)(C)c3cccc(C)n3)cc2c1 (centres unmarked) [Compound 114]		≥ 80			
C#Cc1cnc2c(F)cc(OC(SC)C(=O)NCc3nccs3)cc2c1 (centres unmarked) [Compound 115]		≥ 80			≥ 80
CSc1cnc2ccc(OC(SC)C(=O)NCc3nccs3)cc2c1 (centres unmarked) [Compound 118]		≥ 80			
C#Cc1cnc2c(F)cc(OC(SC)C(=O)NCc3nc(C)cs3)cc2c1 (centres unmarked) [Compound 119]		≥ 80		≥ 80	≥ 80
C#Cc1cnc2c(Cl)cc(OC(SC)C(=O)NCc3nc(C)cs3)cc2c1 (centres unmarked) [Compound 120]		≥ 80		≥ 80	≥ 80
CSc1cnc2ccc(OC(SC)C(=O)NCc3nc(C)cs3)cc2c1 (centres unmarked) [Compound 121]		≥ 80			
C#Cc1cnc2c(F)cc(OC(SC)C(=O)NCc3ncc(C)s3)cc2c1 (centres unmarked) [Compound 122]		≥ 80			≥ 80
CSC(Oc1cc(C)c2ncc(I)cc2c1)C(=O)NCc1cccnc1 (centres unmarked) [Compound 125]		≥ 80			
CSC(Oc1cc(C)c2ncc(I)cc2c1)C(=O)NCc1ccc(Cl)nc1 (centres unmarked) [Compound 127]					≥ 80
